Measured values from patent publication US11773066B2, “Indazolylcyanoethylamino compound, compositions of same, method of making, and methods of using thereof” (BOEHRINGER INGELHEIM ANIMAL HEALTH USA INC., priority 2018, dated 2023).
Converted amounts (≈) assume the structure as drawn.

Assays:
[1] = system: Haemonchus contortus larvae; experiment: In vitro Haemonchus contortus larval motility (L1 to L3 development) assay, MIC90; type: cell-based; conditions: 96 h, L1 larvae in nutrient medium, 27° C., 97% relative humidity, 4 days, motility of L3 vs DMSO control, read-out: MIC90 (minimum concentration inhibiting motility of the larvae by 90%)
Method: The following procedure was used for the study: Twenty L1 Haemonchus contortus larvae were added to wells of a microtitre plate containing a nutrient medium and the test compound in DMSO. The microtitre plate was held at 27° C. and 97% Relative humidity for a 4 day period. Under these conditions the added larvae develop to the L3 stage. The efficacy of a compound is determined based on the motility of the resulting L3 larvae and compared to the motility of control wells treated with DMSO only.

[2] = system: Haemonchus placei; experiment: In vivo efficacy in experimentally infected calves, worm count reduction; conditions: oral, single treatment Day 0, necropsy Day 16, vs untreated control, Compound I 2 mg/kg, eprinomectin 0.075 mg/kg, ivermectin 0.150 mg/kg
Text: (§1) The efficacy of Compound I against parasitic gastrointestinal nematodes in cattle when administered orally as an oral solution was studied. Thirty male castrate dairy calves of approximately 8 to 12 weeks of age were experimentally infected with parasitic nematodes. The calves were inoculated with Haemonchus […] Ostertagia ostertagi on Day -33 and with Cooperia punctata and Cooperia oncophora on Day -21. Calves were allocated to one of the six treatment groups. Calves in Treatment Group 1 were not treated. Calves in Treatment Groups 2-6 were treated on Day 0 as outlined in the Table 2 below with a formulation containing 5% (w/v) of Compound I in a carrier comprising 50% (v/v) PEG 400 with the remainder (QS to 130 mL0 PEG 300. [table] All calves were euthanized on Day 16 and the abomasum and small intestine were recovered from each calf and processed for parasite recovery. All five calves in the untreated control group harbored adequate infections of […]. ostertagi, C. punctate and C. oncophora. The efficacy of each treatment group relative to the control group is shown in Table 3 below: […]

[3] = system: Cooperia oncophora; experiment: as above; conditions: oral; for % Reduction in Worm Counts, C. oncophora Males: single treatment Day 0, necropsy Day 16, vs untreated control, Compound I 2 mg/kg, eprinomectin 0.075 mg/kg, ivermectin 0.150 mg/kg; for efficacy against C. oncophora males in words: Compound I compared with eprinomectin (Group 3) or ivermectin (Group 4)
Text: as §1

[4] = system: Cooperia spp.; experiment: as above; conditions: oral; for % Reduction in Worm Counts, Cooperia spp. Females: single treatment Day 0, necropsy Day 16, vs untreated control, Compound I 2 mg/kg, eprinomectin 0.075 mg/kg, ivermectin 0.150 mg/kg
Text: as §1

[5] = system: Ostertagia ostertagi; experiment: as above; conditions: oral, single treatment Day 0, necropsy Day 16, vs untreated control, Compound I 2 mg/kg, eprinomectin 0.075 mg/kg, ivermectin 0.150 mg/kg
Text: as §1

[6] = system: Cooperia punctata; experiment: as above; conditions: oral, single treatment Day 0, necropsy Day 16, vs untreated control, Compound I 2 mg/kg, eprinomectin 0.075 mg/kg, ivermectin 0.150 mg/kg
Text: as §1

Molecule	MIC90 [1]	% Reduction in Worm Counts, H. placei Adults [2]	% Reduction in Worm Counts, C. oncophora Males [3]	% Reduction in Worm Counts, Cooperia spp. Females [4]	% Reduction in Worm Counts, O. ostertagi Females [5]	% Reduction in Worm Counts, O. ostertagi Males [5]	% Reduction in Worm Counts, C. punctata Males [6]	efficacy against C. oncophora males in words [3]	efficacy against Cooperia spp. female worms in words ([4]; Compound I compared with eprinomectin (Group 3) or ivermectin (Group 4))
CC(C#N)(Cn1cc2ccc(Cl)cc2n1)NC(=O)c1ccc(SC(F)(F)F)cc1 (centres unmarked) [‘999 App, 2.038]	2.4 ng/mL (≈ 5.47 nM)	–	–	–	–	–	–	–	–
eprinomectin	–	98.9%	0%	55.8%	99.4%	95.7%	94.7%	–	–
CC(C#N)(Cn1cc2c(Cl)cc(Cl)c(Cl)c2n1)NC(=O)c1ccc(SC(F)(F)F)cc1 (centres unmarked) [‘999 App, 2.049]	1.2 ng/mL (≈ 2.36 nM)	–	–	–	–	–	–	–	–
ivermectin	–	82%	0%	46%	81%	75%	91%	not effective	–
CC(C#N)(Cn1cc2c(Cl)cc(Cl)cc2n1)NC(=O)c1ccc(SC(F)(F)F)cc1 (centres unmarked) [‘999 App, 2.041]	2.4 ng/mL (≈ 5.07 nM)	–	–	–	–	–	–	–	–
CC(C#N)(Cn1cc2c(C(F)F)cc(Cl)c(Cl)c2n1)NC(=O)c1ccc(SC(F)(F)F)cc1 (centres unmarked) [Compound I]	0.3 ng/mL (≈ 0.573 nM)	100.0%	83.0%	90.9%	96.4%	96.3%	100.0%	significantly more effective	significantly more effective
CC(C#N)(Cn1cc2c(C(F)(F)F)cc(Cl)c(Cl)c2n1)NC(=O)c1ccc(SC(F)(F)F)cc1 (centres unmarked) [Compound II]	1.2 ng/mL (≈ 2.22 nM)	–	–	–	–	–	–	–	–
